Columns and labels:
[1] = system: sperm; test: Sperm progressive motility dose-response and time studies, CASA; format: cell-based, human; conditions: 1-10,000 μg/mL or 5-0.07 mM
[2] = system: sperm penetration in cervical mucus; test: Modified One End Test (MOET), sperm penetration in bovine cervical mucus; format: cell-based
Source text: Bovine cervical mucus was obtained from Humagen (Charlottesville, Va.) in the form of prepackaged flat capillary tubes (Penetrak®), kept frozen and thawed right prior to the experiment. The Modified One End Test (MOET) [(described in Doncel G. F., in “Barrier Contraceptives”, Wiley-Liss, Mauck C. K. et al. eds., pp. 147-162 (1994)] was used to determine the effect of compounds, such as suramin sodium described herein, on sperm penetration in cervical mucus. Each of the test compositions containing the compound to be tested were diluted in a saline solution, i.e., at 9 grams of NaCl per liter of water. Tubes of cervical mucus were broken open. The open end was placed in a container containing the test compound in saline. The test compound was allowed to diffuse for 30 minutes through the tube. A semen sample, obtained from normal healthy donors, was then diluted with a buffer solution to 60 million motile sperm per milliliter and mixed with the test compound sample (i.e., suramin sodium). The tube containing the test compound sample was then re-inserted into the container containing the mixed solution and stored in an incubator at 37° C. in an atmosphere of 5 percent carbon dioxide in air for 60 minutes. The container and tube were then removed from the incubator and the tube was visually analyzed under a microscope for the migration of motile vanguard sperm through the tube. The results are expressed as percentage of migration as compared to control samples. In the control samples, the tubes were incubated with saline containing no compound. […]

| Compound | sperm progressive motility and membrane integrity vs solvent control [1] | MOET % CTL ([2]; 30 ug/ml) [% CTL] | blocking of sperm penetration ([2]; 300 μg/mL (0.03%)) | MOET % CTL ([2]; 300 ug/ml) [% CTL] | MOET % CTL ([2]; 6.25 mg/ml) [% CTL] | MOET % CTL ([2]; 12.5 mg/ml) [% CTL] | MOET % CTL ([2]; 25 mg/ml) [% CTL] | inhibition of sperm penetration in MOET ([2]; 50 mg/mL (5%)) | MOET % CTL ([2]; 50 mg/ml) [% CTL] |
| --- | --- | --- | --- | --- | --- | --- | --- | --- | --- |
| CCCCCCCCCc1ccc(OCCOCCOCCOCCOCCOCCOCCOCCOCCO)cc1 [N-9, α-(4-Nonylphenyl)-ω-hydroxynona(oxyethylene)] | displayed its known sperm-immobilizing effects | 48.6 ± 6.9 | completely blocked sperm penetration | 0.7 ± 0.5 |  |  |  |  |  |
| Dextran Sulfate |  |  |  |  | 93.7 ± 1.7 | 82.4 ± 5.2 | 86.8 ± 4.4 | more inhibition than suramin sodium | 56.6 ± 8.9 |

From patent US8552064B2, “Suramin and derivatives thereof as topical microbicide and contraceptive” (Eastern Virginia Medical School, priority 2005, dated 2013)
